According to patent US12384753B2, “17-beta-hydroxysteroid dehydrogenase type 13 inhibitors and methods of use thereof” (Enanta Pharmaceuticals, Inc., priority 2021, dated 2025):

target: Recombinant human HSD17B13 (Homo sapiens (Human), UniProt Q7Z5P4); experiment: HSD17B13 rapid-fire mass spectrometry assay (RF/MS assay); assay type: biochemical; details: inhibition of HSD17B13; LTB4 10 μM, NAD+ 0.5 mM, RT 3 h; IC50 ranges A-E
Outline: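 Sf9-expressed human HSD17B13 (80 nM) with 10 μM LTB4 and 0.5 mM NAD+, incubated with compound (0–100 μM) for 3 h at RT in Tris pH 7.5/BSA/Tween-20. After formic acid quench, LTB4 conversion to 12-oxo-LTB4 measured by RapidFire MS/MS. IC50 from normalised residual activity, duplicates.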

Chain of Recombinant human HSD17B13 (Q7Z5P4 20-300): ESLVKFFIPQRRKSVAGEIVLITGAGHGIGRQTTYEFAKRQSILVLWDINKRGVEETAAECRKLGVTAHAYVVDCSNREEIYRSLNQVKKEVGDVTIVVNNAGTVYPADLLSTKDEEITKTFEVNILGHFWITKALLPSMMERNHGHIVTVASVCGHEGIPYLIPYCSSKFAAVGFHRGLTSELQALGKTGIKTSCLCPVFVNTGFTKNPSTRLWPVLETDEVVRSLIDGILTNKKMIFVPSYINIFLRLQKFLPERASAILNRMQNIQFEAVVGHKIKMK

IC50, 500 to 1000 nM:
COc1cc(C(=O)O)ccc1NS(=O)(=O)c1csc(N2C[C@@H]3C[C@H]2CN3c2ccccc2)n1 [Example 289]
COc1cc(C(=O)O)ccc1NS(=O)(=O)c1csc(-c2ccc(OC)c3ccccc23)n1 [Example 154]
COc1cc(C(=O)O)ccc1NS(=O)(=O)c1csc(N2CCCC(Cc3ccccc3)C2)n1 (centres unmarked) [Example 258]
COc1cc(C(=O)O)ccc1NS(=O)(=O)c1csc(-c2cccc(C)c2)n1 [Example 124]
Cc1cc(NS(=O)(=O)c2cnc(-c3ccc(F)cc3)s2)ccc1C(=O)O [Example 19]

IC50, < 100 nM:
CC[C@H]1CC[C@H](c2ccc(-c3nc(S(=O)(=O)Nc4cc(F)c(C(=O)O)cc4OC)cs3)cc2)CC1 [Example 723]
COc1cc(C(=O)O)ccc1NS(=O)(=O)c1csc(C#Cc2cccc(C(F)(F)F)c2)n1 [Example 202]
CCOc1c(C2=CCC(C)(C)CC2)ccc(-c2nc(S(=O)(=O)Nc3cc(F)c(C(=O)O)cc3OC)cs2)c1F [Example 568]
COc1cc(C(=O)O)c(F)cc1NS(=O)(=O)c1coc(-c2ccc([C@H]3CC[C@H](C(C)C)CC3)cc2C(F)(F)F)n1 [Example 674]
COc1cc(C(=O)O)ccc1NS(=O)(=O)c1csc(C#CC2CCCC2)n1 [Example 217]
CC[C@H]1CC[C@H](c2ccc(-c3nc(S(=O)(=O)Nc4cc(F)c(C(=O)O)cc4OC)cs3)c(C(F)(F)F)c2)CC1 [Example 787]
COc1cc(C(=O)O)ccc1NS(=O)(=O)c1csc(-c2ccc(-c3ccc4c(c3)OCCO4)cc2)n1 [Example 382]
COc1cc(C(=O)O)c(F)cc1NS(=O)(=O)c1coc(-c2ccc(C3=CCC(C)(C)CC3)cc2C(F)(F)F)n1 [Example 675]
COc1cc(C(=O)O)ccc1NS(=O)(=O)c1csc(-c2ccc(C3=CCCCC3)cc2)n1 [Example 349]
COc1cc(C(=O)O)ccc1NS(=O)(=O)c1csc(C#Cc2ccccc2Cl)n1 [Example 196]
COc1cc(C(=O)O)ccc1NS(=O)(=O)c1coc(-c2ccc(OC(F)(F)F)cc2)n1 [Example 416]
COc1cc(C(=O)O)c(F)cc1NS(=O)(=O)c1csc(-c2ccc(C3CCC(C)(C)CC3)c(C)c2F)n1 [Example 571]
COc1cc(C(=O)O)c(F)cc1NS(=O)(=O)c1csc(-c2ccc(C3=CCC(C)(C)CC3)cc2C)n1 [Example 556]

IC50, 1000 to 100000 nM:
CC(C)(C)c1ccc(S(=O)(=O)NC(=O)c2ccc(NS(=O)(=O)c3cnc(-c4ccc(F)cc4)s3)cc2)cc1 [Example 31, N-((4-(tert-butyl)phenyl)sulfonyl)-4-((2-(4-fluorophenyl)thiazole)-5-sulfonamido)benzamide]
O=C(O)c1ccc(NS(=O)(=O)c2cscn2)cc1 [Example 52]
O=S(=O)(Nc1ccc(CO)cc1)c1cnc(-c2ccc(F)cc2)s1 [Example 36, 2-(4-fluorophenyl)-N-(4-(hydroxymethyl)phenyl)thiazole-5-sulfonamide]
COc1cc(C(=O)O)ccc1NS(=O)(=O)N1Cc2cccc(-c3ccc(C4CCCCC4)cc3)c2C1 [Example 360]
COc1cc(C(=O)O)ccc1NS(=O)(=O)c1csc(N2CCN(C3CCCC3)CC2)n1 [Example 265]
O=C(O)c1ccc2nc(NS(=O)(=O)c3cnc(-c4ccc(F)cc4)s3)sc2c1 [Example 94]
COc1cc(C(=O)O)ccc1NS(=O)(=O)c1csc(-c2cccc(C#N)c2)n1 [Example 129]
Cc1cnn(-c2ccc(S(=O)(=O)Nc3ccc(C(=O)O)cc3)cc2F)c1 [Example 54]
O=S(=O)(Nc1ccc(O)c(Cl)c1)c1cnc(-c2ccc(F)cc2)s1 [Example 114]

IC50, 100 to 500 nM:
O=C(O)c1cc(NS(=O)(=O)c2cnc(-c3ccc(F)cc3)s2)co1 [Example 86]
CCCOc1c(C2=CCC(C)(C)CC2)ccc(-c2nc(S(=O)(=O)Nc3cc(F)c(C(=O)O)cc3OC)cs2)c1F [Example 576]
COc1cc(C(=O)O)c(F)cc1NS(=O)(=O)c1csc(-c2ccc(-c3ccc(C45CC6C[C@H](C4)C[C@H](C6)C5)cc3)c(C(F)(F)F)c2)n1 [Example 738]
COc1cc(C(=O)O)c(F)cc1NS(=O)(=O)c1csc(-c2ccc(OC3CCCCC3)cc2)n1 [Example 763]
COc1cc(C(=O)O)ccc1NS(=O)(=O)c1csc(N2CCN(c3cccc(OC(F)(F)F)c3)CC2)n1 [Example 282]
COc1cc(C(=O)O)c(F)cc1NS(=O)(=O)c1csc(-c2ccc(C3CCC(C)(C)CC3)cc2C2CC2)n1 [Example 547]
O=C(O)c1ccc(NS(=O)(=O)c2ccc(Oc3ccc(S(=O)(=O)Nc4ccc(C(=O)O)cc4O)cc3)cc2)c(O)c1 [Example 172]
COc1cc(C(=O)O)ccc1NS(=O)(=O)N1Cc2nc(-c3ccc4c(c3)CCCC4)sc2C1 [Example 386]
COc1cc(C(=O)O)ccc1NS(=O)(=O)c1csc(C#Cc2cccnc2)n1 [Example 215]
COc1cc(C(=O)O)cnc1NS(=O)(=O)c1cnc(-c2ccc(F)cc2)s1 [Example 85]
COc1cc(C(=O)O)c(F)cc1NS(=O)(=O)c1csc(-c2ccc(-c3cncc(F)c3)cc2)n1 [Example 655]
COc1cc(C(=O)O)c(F)cc1NS(=O)(=O)c1cc(-c2ccc([C@H]3CC[C@H](C(F)(F)F)CC3)cc2)ccn1 [Example 641]
COc1cc(C(=O)O)ccc1NS(=O)(=O)c1cccc(-c2ccc(C3=CCC(C(C)(C)C)CC3)cc2)c1F (centres unmarked) [Example 477, 4-((4″-(tert-butyl)-2-fluoro-2″,3″,4″,5″-tetrahydro-[1,1′:4′,1″-terphenyl])-3-sulfonamido)-3-methoxybenzoic acid]
COc1cc(C(=O)O)c(F)cc1NS(=O)(=O)c1csc(-c2ccc(-c3ccc(C(F)(F)C(F)(F)F)cc3)cc2)n1 [Example 735]
COc1cc(C(=O)O)c(F)cc1NS(=O)(=O)c1ncc(-c2ccc(C3=CCC(C(C)(C)C)CC3)cc2)s1 (centres unmarked) [Example 633]
COc1cc(C(=O)O)c(F)cc1NS(=O)(=O)c1ccc2sc(-c3ccc(C4CCC(C)(C)CC4)cc3C(F)(F)F)nc2c1 [Example 704]
COc1cc(C(=O)O)ccc1NS(=O)(=O)c1ccc(F)c(-c2ccc(C3CCCCC3)cc2)c1 [Example 437]
CCC1CCC(c2ccc(-c3nc(S(=O)(=O)Nc4cc(F)c(C(=O)O)cc4OC)cs3)c(C(F)(F)F)c2)CC1 (centres unmarked) [Example 786]
CC[C@H]1CC[C@H](c2ccc(-c3cnc(S(=O)(=O)Nc4cc(F)c(C(=O)O)cc4OC)s3)cc2)CC1 [Example 615]
COc1c(NS(=O)(=O)c2csc(-c3ccc(C4CCC(C)(C)CC4)cc3)n2)ccc(C(=O)O)c1F [Example 505]
COc1cc(C(=O)O)c(F)cc1NS(=O)(=O)c1csc(-c2ccc(C3=CCC(C)(C)CC3)c(F)c2F)n1 [Example 520]
COc1ccc(-c2nc(S(=O)(=O)Nc3ccc(C(=O)O)cc3OC)cs2)cc1 [Example 99]
COCCOc1c(C2=CCC(C)(C)CC2)ccc(-c2nc(S(=O)(=O)Nc3cc(F)c(C(=O)O)cc3OC)cs2)c1F [Example 577]
